This passage reports EC50, CC50 and selectivity ratio results from ChEMBL document CHEMBL1255320, “Anti-BK virus activity of nucleoside analogs” (Antimicrob Agents Chemother, 2008).

Data set [1] relates to BK polyomavirus. Description: Antimicrobial activity against BK polyomavirus ATCC VR837 infected in human WI38 cells assessed as reduction in viral titer after 7 days by PCR analysis. The class given is functional, organism-based. The note with it: Betapolyomavirus hominis, ATCC VR837, WI-38, 168 h.
The nature of data set [2]: Cytotoxicity against human WI38 cells by neutral red assay. Format: cell-based, WI-38.
Data set [3] can be described thus: Selectivity index, ratio of CC50 for human WI38 cells to EC50 for BK polyomavirus ATCC VR837. The class given is toxicity, cell-based, WI-38. To be noted: read-out: Selectivity Index.

pEC50: −log10 of the molar value.

`CCCCCCCC/C=C\CCCCCCCC(=O)Nc1ncnc2c1ncn2CCOCP(=O)(O)O`: the pEC50 in data set [1] was 6.00. The compound further showed a CC50 in data set [2] of 165 µM. In addition, in data set [3], the selectivity ratio was 58.9.
`CCCCCCCC/C=C\CCCCCCCCOC(=O)Nc1ncnc2c1ncn2CCOCP(=O)(O)O`: the pEC50 in data set [1] is 5.64. The same compound showed a CC50 in data set [2] of 529 µM. For the same compound, the selectivity ratio in data set [3] was determined as 233.
In the same order, the values of `Nc1nc(=O)c2ncn(COCCOP3(=O)OCc4ccccc4O3)c2[nH]1` (stereo unspecified) are < 4.00, 100 µM and 1.
Turning to `Nc1ncnc2c1ncn2/C=C1/CC1(CO)CO`, the pEC50 in data set [1] is 4.39. Besides, the CC50 in data set [2] came out at 312 µM. Besides, in data set [3], the selectivity ratio turned out to be 11.9.
Take `CCCCCCCCCCCCCCCCOCCCOP(=O)(O)CO[C@H](CO)Cn1cnc2c(N)ncnc21`: in data set [1], the pEC50 was 7.70. In addition, the 50% cytotoxic concentration (CC50) in data set [2] was 0.8 µM. For the same compound, the selectivity ratio in data set [3] was 58.5.
As to `CCCCCCCCCCCCCCCCCCOCCOP(=O)(O)CO[C@H](CO)Cn1cnc2c(N)ncnc21`, in data set [1], the pEC50 is 7.52. In addition, the CC50 in data set [2] stood at 0.5 µM. The selectivity ratio in data set [3] amounted to 11.7.
Take `Cc1cccc2c1OP(=O)(OC[C@H]1O[C@@H](n3cc(/C=C/Br)c(=O)[nH]c3=O)CC1O)OC2` (single isomer, unassigned): the pEC50 in data set [1] is 4.38. Also, the CC50 in data set [2] came out at 98.3 µM. Also, in data set [3], the selectivity ratio was 2.3.
With `CC(C)(C)C(=O)OCOP(=O)(COCCn1cnc2c(N)ncnc21)OCOC(=O)C(C)(C)C` [ADEFOVIR DIPIVOXIL], the pEC50 in data set [1] was 6.15. For the same compound, it took 3.1 µM to reach half-maximal cytotoxicity in data set [2] (CC50). The selectivity ratio in data set [3] was 5.7.
In the same order, the values of `Nc1ncnc2c1ncn2CCOCP(=O)(O)O` [ADEFOVIR] are 4.02, 125 µM and 1.3.
Regarding `O=c1[nH]cnc2c1ncn2[C@H]1CC[C@@H](CO)O1` [DIDANOSINE], the negative logarithm of the EC50 (pEC50) in data set [1] is < 4.00. The CC50 in data set [2] is > 100 µM. The selectivity ratio in data set [3] is 1.
Take `CC(=O)OCC(CCn1cnc2cnc(N)nc21)COC(C)=O` [FAMCICLOVIR]: in data set [1], the pEC50 was < 6.11. The CC50 in data set [2] was > 0.78 µM. Also, the selectivity ratio in data set [3] came to 1.
As to `Nc1nc2c(ncn2/C=C2/CC2(CO)CO)c(=O)[nH]1` [FILOCICLOVIR], the negative-log EC50 (pEC50) in data set [1] is < 4.00. Further, the CC50 in data set [2] is > 100 µM. Besides, the selectivity ratio in data set [3] was determined as 1.
With `Nc1ccn([C@@H]2CS[C@H](CO)O2)c(=O)n1` [LAMIVUDINE], the pEC50 in data set [1] was < 4.00. Moreover, the half-maximal cytotoxic concentration (CC50) in data set [2] is > 100 µM. The selectivity ratio in data set [3] turned out to be 1.
Consider `Cc1cn([C@H]2C=C[C@@H](CO)O2)c(=O)[nH]c1=O` [STAVUDINE], for which, in data set [1], the pEC50 was < 4.00. In addition, the CC50 in data set [2] was > 100 µM. For the same compound, the selectivity ratio in data set [3] came to 1.
For the compound `Nc1nc(O)c2ncn(/C=C3/CC3CO)c2n1` (stereo unspecified) [SYNGUANOL], the pEC50 in data set [1] is < 4.00. In data set [2], the CC50 was > 100 µM. The selectivity ratio in data set [3] was found to be 1.
`CC(C)OC(=O)OCOP(=O)(CO[C@H](C)Cn1cnc2c(N)ncnc21)OCOC(=O)OC(C)C` [TENOFOVIR DISOPROXIL]: the negative logarithm of the EC50 (pEC50) in data set [1] was < 4.30. Moreover, the CC50 in data set [2] is > 50 µM. The selectivity ratio in data set [3] was 1.
In the case of `Cc1cn([C@H]2C[C@H](N=[N+]=[N-])[C@@H](CO)O2)c(=O)[nH]c1=O` [ZIDOVUDINE], the pEC50 in data set [1] was < 4.00. For the same compound, the CC50 in data set [2] is > 100 µM. The selectivity ratio in data set [3] came to 1.

The pEC50 is the EC50 on a negative log10 scale, so that one unit is a factor of ten. One may read the CC50 as the concentration at which the toxic effect on the cells reaches its halfway point.
